Results as given in PubChem BioAssay AID248 (DTP/NCI, 2004).
“And” between values parts separate entries of the source, which are not always exact repeats. Equal values may be shown once. Inconclusive results and toxic doses are left out. Rule as the data show it: active = T/C of 150% or more; inactive = T/C below 125%.

Tested on: L1210 leukemia ip in BDF1 mice, survival T/C
Assay: NCI In Vivo Anticancer Drug Screen. Data for tumor model L1210 Leukemia (intraperitoneal) in B6D2F1 (BDF1) mice
Settings: endpoint: mean survival time, higher = longer survival
Summary of the method: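 In this screen, tumor-bearing mice given compound are compared to those given vehicle, and their survival values are reported as a treated-to-control quotient.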

[1] = dose: 100.0 mg/kg/injection, schedule: Q04DX003 (ip), vehicle: saline
[2] = dose: 100.0 mg/kg/injection, schedule: Q04DX003 (ip), vehicle: Klucel (hydroxypropylcellulose) (HPC)
[3] = dose: 200.0 mg/kg/injection, schedule: Q04DX003 (ip), vehicle: Klucel (hydroxypropylcellulose) (HPC)
[4] = dose: 400.0 mg/kg/injection, schedule: Q04DX003 (ip), vehicle: Klucel (hydroxypropylcellulose) (HPC)
[5] = dose: 50.0 mg/kg/injection, schedule: Q01DX009 (ip), vehicle: saline with Tween-80
[6] = dose: 200.0 mg/kg/injection, schedule: Q01DX001 (ip), vehicle: saline
[7] = dose: 400.0 mg/kg/injection, schedule: Q01DX001 (ip), vehicle: saline
[8] = dose: 100.0 mg/kg/injection, schedule: Q04DX003 (ip), vehicle: saline with Tween-80
[9] = dose: 200.0 mg/kg/injection, schedule: Q04DX003 (ip), vehicle: saline with Tween-80
[10] = dose: 400.0 mg/kg/injection, schedule: Q04DX003 (ip), vehicle: saline with Tween-80
[11] = dose: 25.0 mg/kg/injection, schedule: Q01DX009 (ip), vehicle: saline with Tween-80
[12] = dose: 100.0 mg/kg/injection, schedule: Q01DX001 (ip), vehicle: saline with Tween-80
[13] = dose: 200.0 mg/kg/injection, schedule: Q01DX001 (ip), vehicle: saline with Tween-80
[14] = dose: 400.0 mg/kg/injection, schedule: Q01DX001 (ip), vehicle: saline with Tween-80

Measured: T/C

CCCCCCCCCCCCCCCC(=O)N(CCCN)CCCCCCCCCN(CCCN)C(=O)CCCCCCCCCCCCCCC
inactive: dose: 25.0 mg/kg/injection, schedule: Q01DX009 (ip), vehicle: saline 96 % of control | dose: 50.0 mg/kg/injection, schedule: Q01DX009 (ip), vehicle: saline 97 % of control | [1] 91 % of control

Cc1ccc2ccccc2c1CC(=O)NN
inactive: [2] 102 % of control | [3] 104 % of control | [4] 104 % of control

CCOCc1cc(Cc2cc(COCC)c3cccnc3c2O)c(O)c2ncccc12
inactive: dose: 75.0 mg/kg/injection, schedule: Q01DX001 (ip), vehicle: carboxymethylcellulose (CMC) 97 % of control | dose: 150.0 mg/kg/injection, schedule: Q01DX001 (ip), vehicle: carboxymethylcellulose (CMC) 105 % of control | dose: 300.0 mg/kg/injection, schedule: Q01DX001 (ip), vehicle: carboxymethylcellulose (CMC) 103 % of control

Nc1nc2ncc(C(=O)O)nc2c(=O)[nH]1
inactive: dose: 50.0 mg/kg/injection, schedule: Q04DX003 (ip), vehicle: saline 98 % of control | [1] 97 % of control and 104 % of control | dose: 400.0 mg/kg/injection, schedule: Q04DX003 (ip), vehicle: saline 105 % of control

CCCCCCCC[n+]1cccc(C#N)c1
inactive: dose: 18.75 mg/kg/injection, schedule: Q01DX009 (ip), vehicle: saline 104 % of control | dose: 37.5 mg/kg/injection, schedule: Q01DX009 (ip), vehicle: saline 91 % of control | dose: 37.5 mg/kg/injection, schedule: Q04DX003 (ip), vehicle: acetone 97 % of control | dose: 75.0 mg/kg/injection, schedule: Q01DX001 (ip), vehicle: saline 91 % of control | dose: 75.0 mg/kg/injection, schedule: Q01DX009 (ip), vehicle: saline 93 % of control | dose: 75.0 mg/kg/injection, schedule: Q04DX003 (ip), vehicle: acetone 97 % of control | dose: 150.0 mg/kg/injection, schedule: Q01DX001 (ip), vehicle: saline 95 % of control | dose: 150.0 mg/kg/injection, schedule: Q04DX003 (ip), vehicle: acetone 95 % of control

NNC(=O)c1ccc(Cl)cc1Cl
inactive: dose: 6.25 mg/kg/injection, schedule: Q04DX003 (ip), vehicle: saline sonified 97 % of control | dose: 12.5 mg/kg/injection, schedule: Q01DX009 (ip), vehicle: Klucel (hydroxypropylcellulose) (HPC) 96 % of control | dose: 12.5 mg/kg/injection, schedule: Q04DX003 (ip), vehicle: saline sonified 101 % of control | dose: 25.0 mg/kg/injection, schedule: Q01DX009 (ip), vehicle: Klucel (hydroxypropylcellulose) (HPC) 106 % of control | dose: 25.0 mg/kg/injection, schedule: Q04DX003 (ip), vehicle: saline sonified 95 % of control

CC1CCCCN1Cc1ccccc1COC(=O)c1ccc(Br)cc1 (stereo not given)
inactive: dose: 100.0 mg/kg/injection, schedule: Q04DX002 (ip), vehicle: Klucel (hydroxypropylcellulose) (HPC) 101 % of control | dose: 200.0 mg/kg/injection, schedule: Q04DX002 (ip), vehicle: Klucel (hydroxypropylcellulose) (HPC) 92 % of control | dose: 400.0 mg/kg/injection, schedule: Q04DX002 (ip), vehicle: Klucel (hydroxypropylcellulose) (HPC) 96 % of control

O=C1CC2CCCCC2O1 (stereo not given)
inactive: [5] 96 % of control | dose: 75.0 mg/kg/injection, schedule: Q01DX001 (ip), vehicle: other 103 % of control | dose: 100.0 mg/kg/injection, schedule: Q01DX009 (ip), vehicle: saline with Tween-80 88 % of control | dose: 150.0 mg/kg/injection, schedule: Q01DX001 (ip), vehicle: other 97 % of control and 115 % of control

COc1ccccc1/C=N\NC(=O)CCCC(=O)N/N=C/c1ccccc1OC
inactive: dose: 50.0 mg/kg/injection, schedule: Q01DX001 (ip), vehicle: saline 95 % of control | [6] 95 % of control | [7] 90 % of control

Oc1c(Cl)cc(Cl)cc1Sc1cc(Cl)cc(Cl)c1O
inactive: dose: 100.0 mg/kg/injection, schedule: Q04DX002 (ip), vehicle: saline 114 % of control | dose: 200.0 mg/kg/injection, schedule: Q04DX002 (ip), vehicle: saline 100 % of control | dose: 400.0 mg/kg/injection, schedule: Q04DX002 (ip), vehicle: saline 114 % of control

CC1CCC2(NC1)OC1CC3C4CCC5CC(O)CCC5(C)C4CCC3(C)C1C2C (stereo not given)
inactive: dose: 100.0 mg/kg/injection, schedule: Q01DX001 (ip), vehicle: other 94 % of control | dose: 200.0 mg/kg/injection, schedule: Q01DX001 (ip), vehicle: other 91 % of control | dose: 400.0 mg/kg/injection, schedule: Q01DX001 (ip), vehicle: other 94 % of control

N#CC1=C(N)CCP(c2ccccc2)C1 (stereo not given)
inactive: [8] 94 % of control | [9] 97 % of control | [10] 100 % of control

CCCCOC(=O)c1ccc(OC(=O)Nc2ccc(Cl)cc2)cc1
inactive: [11] 101 % of control and 110 % of control | [5] 101 % of control and 110 % of control | [12] 104 % of control | dose: 100.0 mg/kg/injection, schedule: Q04DX002 (ip), vehicle: saline with Tween-80 93 % of control and 115 % of control | [8] 94 % of control | [13] 95 % of control | dose: 200.0 mg/kg/injection, schedule: Q04DX002 (ip), vehicle: saline with Tween-80 95 % of control and 110 % of control | [9] 94 % of control | [14] 98 % of control | dose: 400.0 mg/kg/injection, schedule: Q04DX002 (ip), vehicle: saline with Tween-80 100 % of control and 106 % of control | [10] 97 % of control

CC12CC(c3ccccc3)C(C)(C(c3ccccc3)=C1c1ccccc1)C2(C)O (stereo not given)
inactive: [12] 93 % of control | [13] 100 % of control | [14] 88 % of control

NC(CCSSCCC(N)C(=O)O)C(=O)O (stereo not given)
inactive: dose: 12.5 mg/kg/injection, schedule: Q04DX002 (ip), vehicle: Klucel (hydroxypropylcellulose) (HPC) 113 % of control | dose: 25.0 mg/kg/injection, schedule: Q04DX002 (ip), vehicle: Klucel (hydroxypropylcellulose) (HPC) 97 % of control | dose: 50.0 mg/kg/injection, schedule: Q04DX002 (ip), vehicle: Klucel (hydroxypropylcellulose) (HPC) 103 % of control | [2] 93 % of control | [3] 101 % of control | [4] 93 % of control

Cc1ccc2c(c1)c(N=NC(N)=S)c(O)n2C1OC(CO)C(O)C(O)C1O (stereo not given)
inactive: dose: 50.0 mg/kg/injection, schedule: Q01DX005 (ip), vehicle: saline 94 % of control | dose: 100.0 mg/kg/injection, schedule: Q01DX005 (ip), vehicle: saline 91 % of control | dose: 200.0 mg/kg/injection, schedule: Q01DX005 (ip), vehicle: saline 94 % of control

C/C(=N/OC(=O)N(C)C)c1ccc([N+](=O)[O-])cc1
inactive: dose: 100.0 mg/kg/injection, schedule: Q01DX001 (ip), vehicle: saline 104 % of control | [6] 104 % of control | [7] 104 % of control

CC/C(=C/c1cccc(OC)c1OC)[N+](=O)[O-]
inactive: dose: 12.5 mg/kg/injection, schedule: Q01DX009 (ip), vehicle: saline with Tween-80 105 % of control | [11] 98 % of control | [5] 96 % of control | [8] 107 % of control | [9] 90 % of control
